In publication doi:10.1101/2024.12.09.627639v1 (biorxiv, 2024):

Target: FFA1 (GPR40) (Homo sapiens, UniProt O14842)
Test: aequorin calcium luminescence assay, CHO cells
Format: cell-based

FFA1 (GPR40), sequence (O14842 whole entry): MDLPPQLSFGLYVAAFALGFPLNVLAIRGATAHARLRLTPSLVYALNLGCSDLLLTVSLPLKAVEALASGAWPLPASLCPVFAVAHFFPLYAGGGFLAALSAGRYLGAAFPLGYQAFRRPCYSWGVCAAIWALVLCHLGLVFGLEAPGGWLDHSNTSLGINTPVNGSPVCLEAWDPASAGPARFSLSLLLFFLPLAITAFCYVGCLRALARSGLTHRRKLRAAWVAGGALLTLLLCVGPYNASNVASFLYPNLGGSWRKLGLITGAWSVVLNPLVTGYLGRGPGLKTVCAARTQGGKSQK

EC50: 40 µM
SMILES: CC/C=C\C/C=C\C/C=C\C/C=C\C/C=C\C/C=C\CCC(=O)O [DHA]
